Assay: in vitro
Settings: human, hela cells, % viability

Row | Compound | viability at 28.5 h, 10 µM [%]
1 | COc1ccc(N(CC(=O)Nc2ccc3c(c2)oc2ccccc23)S(=O)(=O)c2ccccc2)cc1 [CBK264814] | 104
2 | CC1=NN(c2ccc(S(N)(=O)=O)cc2)C(=O)/C1=C\c1ccc(-c2cccc(C(=O)O)c2)o1 [CBK263483] | 98
3 | O=C(Nc1cc2cccnc2c(Br)n1)Nc1ccc(F)cc1C(F)(F)F [CBK063287] | 88.8
4 | Cc1c(Cl)cccc1S(=O)(=O)Nc1ccsc1C(=O)O [CBK004549] | 97.7
5 | Cc1noc([C@@H]2C[C@H](NC(=O)Nc3cccc(C#N)c3)CN2C)n1 [CBK288873] | 104
6 | O=C(O)COc1ccc(Br)cc1/C=C\c1nc(O)c([N+](=O)[O-])c(=O)[nH]1 [CBK267223] | 88.5
7 | Cc1ccc(F)c(OC2(C(=O)O)CCN(Cc3ncc[nH]3)CC2)c1 [CBK307062] | 85.2
8 | CCCc1cc(O)nc(SCC(=O)Nc2ccc(Cl)cc2Cl)n1 [CBK265147] | 83.7
9 | COc1ccc(-c2cc(C(=O)N3CCN(C(C)=O)CC3)cnc2-c2ccc(Cl)cc2)cc1 [CBK037577] | 102
10 | OC(CSc1ccc(F)cc1)CN1CCN(c2ccc(C(F)(F)F)cn2)CC1 (stereo not shown) [CBK074688] | 91.2
11 | CCN(CC)S(=O)(=O)c1ccc(Cl)c(C(=O)Oc2cccc3cccnc23)c1 [CBK263205] | 118
12 | Cc1nonc1OCCN1CCN(c2cc3c(cc2[N+](=O)[O-])n(C)c(=O)n3C)CC1 [CBK267676] | 104
13 | Cc1cc2c(cc1C)C(O)CC1(CCN(C(=O)C3CCCC3)CC1)O2 (stereo not shown) [CBK282743] | 81.5
14 | CC(CCc1ccccc1)NC(=O)CCC(=O)O (stereo not shown) [CBK267918] | 86.6
15 | CC(C)(c1ccccc1)c1ccc(OCCOc2ccc(/C=C3\SC(=S)NC3=O)cc2)cc1 [CBK264378] | 91
16 | O=C(O)c1cccc(NC(=O)c2ccc(S(=O)(=O)N3CCCCC3)cc2)c1 [CBK265185] | 86.1
17 | O=C(CSc1nnc(-c2ccccc2)n1-c1ccccc1)N/N=C/c1cccc2cccnc12 [CBK262863] | 91
18 | CC(C)N(C(=O)Cn1c(-c2ccco2)cc2cccnc21)C(C)C [CBK282682] | 99.4
19 | CN(c1ncc(Br)cc1C(=O)Nc1ccc(C(F)(F)F)cc1)S(C)(=O)=O [CBK076542] | 93.3
20 | O=C(c1ccccc1Cl)c1cc(Cl)ccc1-n1ccnc1 [CBK005151] | 95.2
21 | FC(F)(F)c1ccc(OCCNc2ccccc2)nc1 [CBK115828] | 101
22 | COc1ccc(OC)c(NC(=O)CSc2nnc(-c3cccnc3)s2)c1 [CBK269043] | 78.3

Row | Compound | viability at 28.5 h, 10 µM [%]
23 | Cc1cc(C)n(CC(=O)N2CCCC2c2ccc(C)c(C)c2)c(=O)n1 (stereo not shown) [CBK282991] | 99
24 | Cc1ccc2c(c1)OC1(CCN(C(=O)c3c(-c4ccccc4)nc4ccccn34)CC1)CC2=O [CBK167871] | 92.9
25 | CC(C)NC(=O)c1ccccc1Br [CBK026505] | 86.2
26 | Cc1csc(C(Cc2ccsc2)NC(=O)C2CC3C=CC2O3)n1 (stereo not shown) [CBK285108] | 102
27 | CC(C)C(CNCc1ccc(F)c(Cl)c1)c1ccnn1C (stereo not shown) [CBK305130] | 82.9
28 | CC(=O)c1cccc(NC(=O)CN(c2cc(Cl)ccc2Cl)S(=O)(=O)c2ccc(C)cc2)c1 [CBK268897] | 90.6
29 | COC(=O)COc1ccc(C2Nc3c(Cl)ccc(C(=O)O)c3C3C=CCC32)cc1 (stereo not shown) [CBK268961] | 99.9
30 | OCC1CCCN1c1nccnc1-c1ccccc1F (stereo not shown) [CBK038037] | 104
31 | O=C(O)CCC1=C2c3ccccc3CCN2C(=O)CC1 [CBK286945] | 108
32 | O=C(O)c1ccc(NS(=O)(=O)c2ccc(Cl)cc2)cc1O [CBK200023] | 106
33 | CC(C)(Oc1cccc2ccccc12)C(=O)O [CBK012409] | 94.5
34 | NC(=O)C1CCN(C2CC(=O)NC2=O)CC1 (stereo not shown) [CBK263290] | 90.3
35 | O=c1cc(-c2ccc(Br)cc2)nc2[nH]ccn12 [CBK016446] | 81
36 | N=C(N)SCP(=O)(c1ccccc1)c1ccccc1 [CBK260990] | 99.3
37 | CNCc1cccc(OC)c1OCc1ccccc1F [CBK269949C] | 99.2
38 | C(=N\N=C\c1ccccn1)/c1ccccn1 [CBK015627] | 89
39 | O=C(CN1C2CCC1CC(O)(c1ccco1)C2)N1CCCC1 (stereo not shown) [CBK284042] | 88.7
40 | CCC(NC(=O)c1cc(CC(C)C)nn1CC)c1cn2cccnc2n1 (stereo not shown) [CBK307505] | 101
41 | Cc1ccc(Oc2ccc(NC(=O)Cn3cnnc3C#N)cc2)cc1 [CBK295612] | 106
42 | Brc1cccc(OCc2cccs2)c1 [CBK176011] | 99
43 | O=C1CNC(=O)C2(C/C=C/C[C@H]3COCC[C@@H]3N1)CCN(CC(=O)N1CCCCC1)CC2 [CBK292137] | 111
44 | CC(C)(C)c1cn(C[C@H]2CC3CCN2C[C@@H]3C(=O)N2CCOCC2)nn1 (stereo partly shown) [CBK288735] | 87.8

Row | Compound | viability at 28.5 h, 10 µM [%]
45 | Cc1cc(NC(=O)C(C)C)nc2c1c(=O)oc1ccccc12 [CBK287441] | 89.7
46 | O=C(CSc1nccn1C1CC1)Nc1ccc(CN2CCOCC2)cc1 [CBK306071] | 98.9
47 | NS(=O)(=O)c1ccc(CCNC(=O)/C=C/c2ccccc2[N+](=O)[O-])cc1 [CBK265709] | 101
48 | OCC1COCCN(c2ncnc3c2CCC3)C1 (stereo not shown) [CBK304373] | 103
49 | CN1CCC(CNS(=O)(=O)c2cccc3c2OCC3)CC1=O (stereo not shown) [CBK305465] | 114
50 | O=C(O)[C@H]1Nc2ccc(Br)cc2[C@H]2[C@H](O)[C@H](O)C[C@H]21 [CBK303242] | 115
51 | CCC1C(=O)NCCN1C(=O)c1cc2cc(C)ccc2n1C (stereo not shown) [CBK281729] | 110
52 | CCOC(=O)c1c(N)sc(C(=O)Nc2cccc([N+](=O)[O-])c2)c1C [CBK066829] | 91.2
53 | CCCS(=O)(=O)N1CCCC(Cc2ccc(F)cc2F)(C(=O)OCC)C1 (stereo not shown) [CBK307221] | 85.5
54 | COC(=O)C(C)(C)C1c2cc(Br)ccc2OC(=O)C1C(=O)c1ccccc1 (stereo not shown) [CBK266690] | 102
55 | N#Cc1ccc(NC(=O)CC2(CC(=O)O)CCCC2)cc1 [CBK286979] | 89.5
56 | O=C(O)CCCCCNS(=O)(=O)c1ccc(Cl)cc1 [CBK261940] | 81.4
57 | Cc1cc(Br)cc(C)c1NC(=O)CSc1nnc(COc2ccccc2Cl)o1 [CBK264968] | 93
58 | CN(C)S(=O)(=O)N1CCN(c2ccc([N+](=O)[O-])c(NCCc3ccccc3)c2)CC1 [CBK266498] | 102
59 | CCC(CC(=O)NC1CCCOC1)c1c[nH]c2ccccc12 (stereo not shown) [CBK282521] | 119
60 | CCN(CC)C(=O)CN(CCc1ccc(OC)c(OC)c1)C(=O)NCCc1c[nH]c2ccccc12 [CBK158741] | 91.1
61 | CCCc1ccc(S(=O)(=O)Nc2c(C(=O)N(CC)CC)[nH]c3ccccc23)cc1 [CBK050111] | 87.1
62 | CCN(CC)C(=O)C1CCCN(C(=O)NCc2ccc(Cl)c(Cl)c2)C1 (stereo not shown) [CBK156119] | 98.8
63 | CN1CCCN(c2cncc(-c3ccc(F)cc3F)n2)CC1 [CBK065858] | 97.9
64 | O=C(CCn1c(-c2ccccn2)cc2cccnc21)NC1CCCC1 [CBK284965] | 98.3
65 | Cc1nc2ccccn2c1-c1csc(Nc2cccc(C(=O)O)c2)n1 [CBK263303B] | 92.7
66 | CCn1c(C)cc(C(=O)CSc2nnc(N3CCCC3)n2C2CC2)c1C [CBK306035] | 85.5

Row | Compound | viability at 28.5 h, 10 µM [%]
67 | CC(C)C(=O)NCCN1CCOCC1 [CBK034322] | 115
68 | Cc1nc2ccc(NC(=O)N3CCC(c4ccccc4)C3)cc2s1 (stereo not shown) [CBK266512] | 98.8
69 | CCCCn1nccc1NC(=O)NC(C)c1n[nH]c(C)n1 (stereo not shown) [CBK307486] | 99.4
70 | Nc1ncc(-c2ccc(C(=O)N3CCOCC3)cc2)nc1-c1ccc(C[C@H](N)C(=O)O)cc1 [CBK126364] | 97
71 | Cc1cccnc1C(c1ccccc1)N(C)C(=O)C1CCN(C(=O)NCc2ccccc2)CC1 (stereo not shown) [CBK074119] | 106
72 | CN(Cc1ccccc1)c1nccnc1-c1ccc(F)c(Cl)c1 [CBK037997] | 107
73 | O=C(C1CCCC1)N1CCCC1c1nc2ccccc2[nH]1 (stereo not shown) [CBK282378] | 88.5
74 | O=S1(=O)CCC(c2nnc(C3(c4ccc(Br)cc4)CCOCC3)o2)C1 (stereo not shown) [CBK305513] | 115
75 | O=C(O)CC1SC(Nc2ccc(F)cc2F)=NC1=O (stereo not shown) [CBK200115] | 99.3
76 | Cn1cc(C(=O)Nc2ccc3c(c2)CN(Cc2ccccc2)C3)cn1 [CBK281838] | 94.8
77 | COc1ccc2c(c1)C1(CC(=O)N(Cc3ccccc3)C1=O)C(=O)N2Cc1ccccc1 (stereo not shown) [CBK075228] | 106
78 | CCc1cc(NC[C@@H](O)CO)nc(-c2cc(F)c(F)c(F)c2)n1 [CBK132879] | 94.2
79 | CC1COCC(C)N1c1ccc2nnc(-c3ccc(C(F)(F)F)cc3)n2n1 (stereo not shown) [CBK009548] | 81.7
80 | Cc1cccc(C(=O)N2CCN(Cc3cc(=O)n4ccsc4n3)CC2)c1 [CBK305037] | 91
81 | Cc1c[nH]c(CN(C)C(=O)c2cccc(NC(=O)C3CCCC3)c2)n1 [CBK307282] | 91.4
82 | CC(C)C[C@H]1NC(=O)C2(C/C=C/C[C@@H]3COCC[C@@H]3NC1=O)CCN(C(=O)[C@@H](N)Cc1c[nH]c3ccccc13)CC2 [CBK292200] | 109
83 | O=C(c1ccc2[nH]nnc2c1)N1CCc2ccccc21 [CBK200365] | 102
84 | N#CCCCN1CCC(Oc2nccnc2OCc2cccc(Cl)c2)CC1 [CBK153642] | 90.6
85 | CCOC(=O)C(Cc1ccccc1)NC(=O)c1ccc(C)nc1 (stereo not shown) [CBK305952] | 89.6
86 | COc1cc(-c2cnc3[nH]c(=O)n(Cc4ccco4)c3n2)cc(OC)c1OC [CBK064755] | 96.3
87 | O=C(CN1C(=O)c2ccc([N+](=O)[O-])cc2C1=O)Nc1cc(Cl)ccc1C(=O)O [CBK263472] | 97.1
88 | CN(C)CCNc1cc(-c2ccncc2)nc2ccccc12 [CBK066898B] | 90.4

— article PMC12040169 (PLOS Biology, 2025)
